This is an account of results in patent US7815942B2, “Rasagiline formulations of improved content uniformity” (Teva Pharmaceutical Industries, Ltd., priority 2005, dated 2010).

Data set [1] in a line: Particle size distribution by Malvern laser diffraction (Mastersizer S). It counts as physicochemical. Particulars: average of two measurements. As to the method:
Many analytical tools are available to determine PSD. In the early development stage, the analysis of PSD was performed through microscopic and sieve analysis. Laser diffraction was chosen as the final analytical method for measuring the PSD. Because the large particles were of major concern, the important characteristics of the PSD were the d(0.9), which is the size, in microns, below which 90% of the particles by volume are found, and the d(0.1), which is the size, in microns, below which 10% of the particles by volume are found.
R(+)PAI mesylate samples before milling contain large, irregular, plate-shaped particles of various sizes (See FIG. 1). PSDs of four different batches were measured before milling and after milling. The PSDs were measured using Malvern Laser Diffraction, using the Mastersizer S model. Laser diffraction relies on the fact that diffraction angle of light is inversely proportional to particle size. Properties of particles are measured and interpreted as measurements of a sphere (a sphere being the only shape that can be described by one unique number). In addition, laser diffraction calculates a particle size distribution based around volume terms, thus eliminating particle count from the determination of particle size. The Masterizer S model measures particles using a single technique and a single range setting.
The values in the table represent averages of two measurements. Each measurement was taken after 3 minutes of recirculation with the speed control at the 14 hour position. The dilution medium was a 1% solution of dioctyl sulfosuccinate sodium salt in n-hexane. The concentration of drug substance used in the measurements was between 0.05% and 0.35% by volume. The results were confirmed with microscopic observation. For optical microscopy, an emulsion or suspension, diluted or undiluted, was mounted on a slide or ruled cell. The microscope eyepiece was fitted with a micrometer by which the size of the particles may be estimated.
D(0.1) is the particle size, in microns, below which 10% by volume distribution of the population is found, and d(0.9) is the particle size, in microns, below which 90% by volume distribution of the population is found. […]

For data set [2] the following is noted: compared with the microcrystalline form; cited from earlier work.
For data set [3] the following is noted: 18-year study, subjects, cited from earlier work.

Where two headings read alike, the source gives them in different places.

For the compound `C#CCN[C@@H]1CCc2ccccc21.CS(=O)(=O)O` [Batch D197/197], in data set [1] (listed as D197/197), the “d (0.1) after milling” value worked out at 14 microns, the “d (0.9) after milling” value turned out to be 168 microns, the “d (0.1) before milling” value is 21 microns and the “d (0.9) before milling” value worked out at 443 microns.
Take `C#CCN[C@@H]1CCc2ccccc21.CS(=O)(=O)O` [Batch D211/212]: in data set [1] (listed as D211/212), the “d (0.1) after milling” value turned out to be 16 microns, the “d (0.9) after milling” value turned out to be 189 microns, the “d (0.1) before milling” value turned out to be 104 microns and the “d (0.9) before milling” value turned out to be 598 microns.
Take `C#CCN[C@@H]1CCc2ccccc21.CS(=O)(=O)O` [Batch D222/223]: in data set [1] (listed as D222/223), the “d (0.1) after milling” value was 10 microns, the “d (0.9) after milling” value stood at 156 microns, the “d (0.1) before milling” value came to 18 microns and the “d (0.9) before milling” value is reported as 573 microns.
With `C#CCN[C@@H]1CCc2ccccc21.CS(=O)(=O)O` [Batch D297/297], in data set [1] (listed as D297/297), the “d (0.1) after milling” value came out at 11 microns, the “d (0.9) after milling” value came out at 160 microns, the “d (0.1) before milling” value is 20 microns and the “d (0.9) before milling” value is given as 386 microns.
For the compound `O=C1CN(/N=C/c2ccc([N+](=O)[O-])o2)C(=O)N1` [macrocrystalline form of Nitrofurantoin, Nitrofurantoin], in data set [2], the “dissolution and absorption rates” value is listed as “slower”; the serum concentrations entry is on record as “lower”; the “time to achieve peak concentration in urine” value is reported as “takes longer”. For the same compound, in data set [3] (listed as macrocrystalline form), the “negative side effects (adverse events) such as nausea and gastro-intestinal problems” value was “did not manifest”.
As for `O=C1CN(/N=C/c2ccc([N+](=O)[O-])o2)C(=O)N1` [microcrystalline form, Nitrofurantoin], the “negative side effects (adverse events) such as nausea and gastro-intestinal problems” value in data set [3] was “produces negative side effects”.
